Usually IC50 stands for the concentration at which inhibition is half-maximal. The term melting point denotes the temperature, or range, at which the solid turns liquid.

One data set has as its target T1, HDAC 4-CAT (Homo sapiens, UniProt P56524).
T1 construct: For HDAC-4 and 7 only catalytic domains were expressed (HDAC-4 CAT and HDAC-7 CAT); 6xHis; made in house; host or cells: Sf9 cells (baculovirus)
The data set can be described thus: Fluorescence-based HDAC isoform assay with electrophoretic separation, HDAC 4-CAT. The data set is classed as biochemical. As to conditions: catalytic domain only, 1 μM FAM-labeled acetylated peptide, 17 h at 25° C. The protocol: (§1) The inhibitory effects of the compounds of Examples 7 and 9 above on HDAC activity were determined using a fluorescence-based assay with electrophoretic separation of substrate and product carried out using a microfluidic system followed by quantitation of fluorescence intensity in the substrate and product peaks.
(§2) The assays were performed using isolated HDAC isoforms that had been expressed as 6×His-tagged fusion proteins in a baculovirus expression system in Sf9 cells. HDACs 1, 2, 3, 6, and 8 were expressed as full length fusion proteins. For HDAC-4 and 7 only catalytic domains were expressed (HDAC-4 CAT and HDAC-7 CAT). The HDAC10 fusion protein was expressed as a carboxy-terminal deletion of 38 amino acids (residues 632-669). HDAC3 was coexpressed with a fragment of the SMRT gene (residues 395-489) to generate enzymatically active protein. Purified proteins were incubated with 1 μM carboxyfluorescein (FAM)-labeled acetylated peptide substrate and test compound for 17 h at 25° C. in HDAC assay buffer containing 100 mM HEPES (pH 7.5), 25 mM KCl, 0.1% BSA, and 0.01% Triton X-100. […] Substrate and product were separated electrophoretically using a Caliper LabChip 3000 system with blue laser excitation and green fluorescence detection (CCD2). The fluorescence intensity in the substrate and product peaks was determined using the Well Analyzer software on the Caliper system. […]

The subject of data set [1] is HL60 cells. The data set can be described thus: MTS assay, growth inhibition in HL60 cells. In kind it is cell-based. Conditions: after 3 days (FIG. 2(i) legend: 4 day), absorbance 490 nm relative to untreated cells. The protocol:
(§3) HL60 or NB4 cells were diluted in complete growth medium and plated at a density of 5000 cells per 0.1 ml in wells of a 96 well plate. Cells were then treated with various concentrations of the compound of Example 7 (MI-192) or were left untreated as a control in a total volume of 0.2 ml of complete growth medium. After 3 days, relative cell numbers were determined using the MTS assay, as described by the manufacturer (Promega, Southampton, UK). The results shown in FIG. 2(i) are absorbance (490 nm) relative to control cells (untreated cells 100%).

For another data set, the system named is NB4 cells. The data set can be described thus: MTS assay, growth inhibition in NB4 cells. Conditions: after 3 days (FIG. 2(i) legend: 4 day), absorbance 490 nm relative to untreated cells. In kind it is cell-based. The method, then: as §3
A general note: Tetrazolium assays rely on reduction of a dye to a coloured formazan, in cell work by metabolically active cells.

Data set [2] has as its system CYP26 RNA expression in HL60 cells. Put plainly: CYP26 RNA expression in HL60 cells (Q-RT-PCR). The data set is classed as cell-based. The method, then:
(§4) HL60 or NB4 cells were cultured at 1.0×10^6 cells/ml in complete growth medium. Cells (10 ml) were then treated with ATRA, the compound of Example 7(MI-192), or left untreated as controls. After 1 day, the expression of CYP26 and BACT RNAs were determined using quantitative PCR (Taqman). The expression of CYP26 RNA was normalised to BACT, and expression in control cells was set to 1.0.

The subject of data set [3] is HL60 cells. The data set can be described thus: CD11b flow cytometry, differentiation in HL60 cells. As to conditions: 3 days. The data set is classed as cell-based. The method, then: HL60 cells were cultured at 0.5×10^6 cells/ml in complete growth medium. Cells (2 ml) were then treated with ATRA (sourced commercially), the compound of Example 7 (MI-192), or left untreated as controls. After 3 days, CD11b expression was determined by flow cytometry using a PE-conjugated anti-CD11b monoclonal antibody.

In another data set the target is T2, HDAC 1 (Homo sapiens, UniProt Q13547).
T2 construct: HDACs 1, 2, 3, 6, and 8 were expressed as full length fusion proteins; 6xHis; made in house; host or cells: Sf9 cells (baculovirus)
The data set can be described thus: Fluorescence-based HDAC isoform assay with electrophoretic separation, HDAC 1. The data set is classed as biochemical. As to conditions: isolated 6×His-tagged isoform, 1 μM FAM-labeled acetylated peptide, 17 h at 25° C. The method, then: as §1, §2

Data set [4] relates to CYP26 RNA expression in NB4 cells. The data set can be described thus: CYP26 RNA expression in NB4 cells (Q-RT-PCR). In kind it is cell-based. Conditions: 1 day, normalised to BACT, control set to 1.0. The method, then:
as §4

The next data set deals with T3, HDAC 10 (Homo sapiens, UniProt Q969S8).
T3 construct: 6xHis; made in house; host or cells: Sf9 cells (baculovirus)
T3 sequence (Q969S8 1-631): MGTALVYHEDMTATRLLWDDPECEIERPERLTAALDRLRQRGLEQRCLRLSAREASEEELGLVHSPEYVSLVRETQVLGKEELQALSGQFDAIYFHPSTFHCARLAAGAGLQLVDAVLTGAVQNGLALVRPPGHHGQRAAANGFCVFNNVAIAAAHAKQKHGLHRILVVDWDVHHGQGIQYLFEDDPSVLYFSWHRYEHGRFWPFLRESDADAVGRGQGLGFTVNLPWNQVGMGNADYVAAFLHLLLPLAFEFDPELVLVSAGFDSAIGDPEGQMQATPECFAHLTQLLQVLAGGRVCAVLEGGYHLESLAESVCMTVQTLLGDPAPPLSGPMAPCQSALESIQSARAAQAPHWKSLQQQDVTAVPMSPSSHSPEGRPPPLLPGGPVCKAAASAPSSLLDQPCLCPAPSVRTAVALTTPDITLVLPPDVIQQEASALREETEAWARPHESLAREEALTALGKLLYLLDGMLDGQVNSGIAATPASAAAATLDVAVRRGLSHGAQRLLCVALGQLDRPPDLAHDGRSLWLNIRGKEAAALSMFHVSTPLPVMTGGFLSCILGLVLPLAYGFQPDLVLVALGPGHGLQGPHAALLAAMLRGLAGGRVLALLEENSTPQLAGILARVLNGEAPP
The data set can be described thus: Fluorescence-based HDAC isoform assay with electrophoretic separation, HDAC 10. As to conditions: carboxy-terminal deletion of 38 amino acids, 1 μM FAM-labeled acetylated peptide, 17 h at 25° C. In kind it is biochemical. The protocol: as §1, §2

T1 sequence (P56524 655-1084 limits assumed): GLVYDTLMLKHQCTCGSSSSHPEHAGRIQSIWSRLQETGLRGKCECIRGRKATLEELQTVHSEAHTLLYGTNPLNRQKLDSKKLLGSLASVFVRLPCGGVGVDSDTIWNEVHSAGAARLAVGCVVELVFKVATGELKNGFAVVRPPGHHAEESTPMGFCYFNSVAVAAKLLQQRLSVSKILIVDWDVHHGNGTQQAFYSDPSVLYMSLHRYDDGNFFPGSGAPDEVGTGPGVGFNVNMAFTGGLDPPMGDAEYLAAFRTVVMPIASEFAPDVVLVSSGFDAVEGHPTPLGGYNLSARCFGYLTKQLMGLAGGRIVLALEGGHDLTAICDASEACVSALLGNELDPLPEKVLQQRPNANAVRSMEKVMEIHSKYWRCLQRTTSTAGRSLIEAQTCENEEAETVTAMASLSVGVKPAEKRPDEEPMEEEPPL
T2 sequence (Q13547 whole entry, species assumed, the tested form may be a part): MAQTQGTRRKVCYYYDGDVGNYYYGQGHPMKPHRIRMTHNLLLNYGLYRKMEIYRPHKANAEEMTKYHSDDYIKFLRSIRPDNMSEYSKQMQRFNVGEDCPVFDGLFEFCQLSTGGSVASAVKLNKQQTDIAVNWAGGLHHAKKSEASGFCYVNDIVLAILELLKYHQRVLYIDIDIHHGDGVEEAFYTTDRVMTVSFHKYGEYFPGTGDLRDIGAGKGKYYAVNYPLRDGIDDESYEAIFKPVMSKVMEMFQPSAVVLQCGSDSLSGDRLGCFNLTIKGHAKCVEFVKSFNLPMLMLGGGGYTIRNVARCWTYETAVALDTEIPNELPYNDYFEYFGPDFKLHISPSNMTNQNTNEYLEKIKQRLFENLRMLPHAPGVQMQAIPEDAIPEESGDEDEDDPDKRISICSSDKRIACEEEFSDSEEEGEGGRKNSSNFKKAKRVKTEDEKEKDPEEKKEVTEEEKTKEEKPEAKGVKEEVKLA

In the case of `C=C1CN(Cc2ccc(C(=O)Nc3ccccc3N)cc2)C(=O)c2ccccc21` [Example 7, N-(2-Aminophenyl)-4-[(4-methylene-1-oxo-3,4-dihydroisoquino-2(1H)-yl)methyl]benzamide], the IC50 at HDAC 4-CAT came out at 9.22 µM; against HDAC 1 it was 8.7 µM; against HDAC 10 it was 8.04 µM. Also, the “growth inhibition (MTS assay)” value with HL60 cells [1] and in the data set with NB4 cells was “promotes growth inhibition” in each case. The “transcription modulating activity compared with ATRA” value in data set [2] is recorded as “exceeded that of ATRA”. The “CYP26 RNA expression” value in data set [2] (1 day, Q-RT-PCR, normalised to BACT, control set to 1.0) is listed as “induces expression of CYP26”; in data set [4], “induces expression of CYP26”. For the same compound, the “differentiation (CD11b expression, flow cytometry)” value in the data set on HL60 cells [3] is “promotes growth inhibition and differentiation”.
Compound `C=C1CN(Cc2ccc(C(=O)Nc3ccccc3N)cc2)C(CC(=O)O)c2ccccc21` (stereo not shown) [Example 9, [2-(4-{[(2-Aminophenyl)amino]carbonyl}benzyl)-4-methylene-1,2,3,4-tetra hydroisoquinolin-1-yl]acetic acid] showed a melting point greater than 230 °C. Besides, the half-maximal inhibitory concentration (IC50) against HDAC 4-CAT is greater than 30 µM. The compound also gave an IC50 at HDAC 1 greater than 30 µM. On HDAC 10, this compound registered an IC50 greater than 30 µM.

Source of the values: patent publication US20140135327A1, “N- (2 -AMINOPHENYL) BENZAMIDE DERIVATIVES AS HISTONE DEACETYLASE INHIBITORS” (CANCER RESEARCH TECHNOLOGY LIMITED, priority 2011, published 2014).
